For 34 molecules, inhibition and IC50 results are on record in patent US8168651B2, “Protein kinase modulators” (Cylene Pharmaceuticals, Inc., priority 2008, dated 2012).

The target of one test is recombinant human PIM1 (Homo sapiens (Human), UniProt P11309). In words: PIM-1 kinase activity in cell-free in vitro assay. The test is classed as biochemical. The note with it: cell-free assay; for inhibition at 0.5 µM: 500 nM compound, read-out: PIM-1: % inh 500 nM.
The next test relates to K-562. In words: Cell proliferation modulatory activity, K-562. The test is classed as cell-based. The note with it: Homo sapiens, K562; K-562 cells.
The next test concerns the target recombinant human CK2 (Homo sapiens (Human), UniProt P68400). In words: CK2 assay (cell-free, 33P-ATP filter plate). The test is classed as biochemical. The note with it: 500 nM compound, cell-free assay; read-out: CK2: % inh 500 nM.
A further test concerns MV-4-11. In words: Cell proliferation modulatory activity, MV-4-11. The test is classed as cell-based. The note with it: Homo sapiens, MV4-11; MV-4-11 cells.
Test [1] deals with HCT-116 human colorectal carcinoma cells. In words: Cell-proliferation assay using Alamar Blue dye.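 Further: cells exposed to compound for about 4 days, then Alamar Blue added and dye fluorescence read after about 4 h, compared with medium-only control wells.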 The note with it: Homo sapiens, HCT-116, second HCT-116 column (c8); read-out: HCT-116 (uM) cell proliferation modulatory activity. The class given is cell-based.

recombinant human CK2, sequence (P68400 whole entry): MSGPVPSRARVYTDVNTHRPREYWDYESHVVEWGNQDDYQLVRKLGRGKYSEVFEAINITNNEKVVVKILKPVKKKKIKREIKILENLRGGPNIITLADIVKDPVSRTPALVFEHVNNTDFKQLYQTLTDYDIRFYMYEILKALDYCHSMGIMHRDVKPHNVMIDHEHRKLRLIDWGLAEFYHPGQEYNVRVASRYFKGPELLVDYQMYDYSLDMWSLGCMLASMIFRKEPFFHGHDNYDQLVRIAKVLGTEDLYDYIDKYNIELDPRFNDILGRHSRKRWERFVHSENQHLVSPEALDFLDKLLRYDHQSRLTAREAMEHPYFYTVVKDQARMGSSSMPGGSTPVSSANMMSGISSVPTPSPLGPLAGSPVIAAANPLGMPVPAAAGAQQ
recombinant human CK2, sequence (P67870 whole entry partner): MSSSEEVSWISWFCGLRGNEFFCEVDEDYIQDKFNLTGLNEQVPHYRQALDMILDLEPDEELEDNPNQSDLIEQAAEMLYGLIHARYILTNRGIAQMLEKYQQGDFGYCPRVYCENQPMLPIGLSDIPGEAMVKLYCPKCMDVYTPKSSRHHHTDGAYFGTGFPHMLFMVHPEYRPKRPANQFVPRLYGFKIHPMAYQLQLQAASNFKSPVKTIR
recombinant human PIM1, sequence (P11309 whole entry): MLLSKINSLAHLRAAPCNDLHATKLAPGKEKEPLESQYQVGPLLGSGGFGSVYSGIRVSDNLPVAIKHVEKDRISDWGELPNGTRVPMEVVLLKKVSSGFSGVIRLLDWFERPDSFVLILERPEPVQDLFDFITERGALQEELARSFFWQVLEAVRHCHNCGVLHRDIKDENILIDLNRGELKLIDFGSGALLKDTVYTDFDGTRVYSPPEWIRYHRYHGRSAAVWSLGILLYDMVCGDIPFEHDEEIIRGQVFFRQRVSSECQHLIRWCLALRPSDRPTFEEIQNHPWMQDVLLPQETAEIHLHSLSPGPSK

`CCN1CCCC1CNc1nc2cc(-c3nnn[nH]3)ccc2c2sccc12` (stereo not shown): the inhibition at 0.5 µM is 103% on recombinant human PIM1 and 55.7% on recombinant human CK2. Moreover, the IC50 came to 0.098 µM at recombinant human PIM1, 0.175 µM with K-562, 0.174 µM with MV-4-11 and 0.397 µM in test [1].

In the case of `NC1CCN(c2nc3cc(-c4nnn[nH]4)ccc3c3sccc23)C1` (stereo not shown), the results for the inhibition at 0.5 µM at recombinant human PIM1 and on recombinant human CK2 were 63.6% and 30.8%, respectively. The IC50 is 0.489 µM on recombinant human PIM1, > 10 µM in the test on K-562, 1.15 µM in the test with MV-4-11 and > 10 µM in test [1].

For `c1cc2c(N3CCC(N4CCCC4)CC3)nc3cc(-c4nnn[nH]4)ccc3c2s1`, the inhibition at 0.5 µM turned out to be 90% at recombinant human PIM1 and 38.6% on recombinant human CK2. In addition, the IC50 at recombinant human PIM1 is 0.119 µM; in the test on K-562 it was > 10 µM; in the test on MV-4-11 it was 1.07 µM; in test [1], > 10 µM.

For the molecule `c1ccc(CNc2nc3cc(-c4nnn[nH]4)ccc3c3sccc23)nc1`, the figures for the inhibition at 0.5 µM at recombinant human PIM1 and on recombinant human CK2 were 16.8% and 27.9%, respectively. Besides, the IC50 was > 10 µM in the test with K-562, 1 µM in the test on MV-4-11 and > 10 µM in test [1].

With `COC(=O)c1ccc2c(c1)nc(NCCN(C)C)c1ccsc12`, the inhibition at 0.5 µM was -6.89% on recombinant human PIM1 and -0.704% at recombinant human CK2. For the same molecule, the IC50 in the test on K-562 is 1.09 µM; in the test on MV-4-11, 0.73 µM; in test [1], 1.52 µM.

Regarding `CN(C)CCNc1nc2cc(C#N)ccc2c2sc(Br)cc12`, the inhibition at 0.5 µM is 12.1% at recombinant human PIM1 and -7.27% at recombinant human CK2. The IC50 in the test on K-562 is 0.719 µM; in the test with MV-4-11, 0.588 µM; in test [1], 0.704 µM.

Turning to `CN(C)CCNc1nc2cc(-c3nnn[nH]3)ccc2c2sc(Br)cc12`, the inhibition at 0.5 µM at recombinant human PIM1 was 60.7%; on recombinant human CK2 it was 24.8%. Besides, the IC50 is 0.656 µM at recombinant human PIM1, > 10 µM in the test with K-562, > 10 µM in the test with MV-4-11 and > 10 µM in test [1].

For the molecule `CN1CCN(c2nc3cc(-c4nnn[nH]4)ccc3c3sccc23)CC1`, the inhibition at 0.5 µM at recombinant human PIM1 is 81.3%; at recombinant human CK2, 7.3%. In addition, the IC50 was 0.178 µM at recombinant human PIM1, > 10 µM in the test with K-562, > 10 µM in the test with MV-4-11 and > 10 µM in test [1].

For the molecule `CN(C)CCNc1nc2cc(-c3nnc[nH]3)ccc2c2sccc12`, the inhibition at 0.5 µM on recombinant human PIM1 is -2.14%; at recombinant human CK2, -76.9%. The IC50 was > 10 µM in the test on K-562, 6.04 µM in the test with MV-4-11 and > 10 µM in test [1].

As to `c1cc2c(NC3CCNCC3)nc3cc(-c4nnn[nH]4)ccc3c2s1`, the figures for the inhibition at 0.5 µM on recombinant human PIM1 and at recombinant human CK2 were 85.7% and -21.2%, respectively. The IC50 on recombinant human PIM1 is 0.078 µM; with K-562, > 10 µM; in the test with MV-4-11, > 10 µM; in test [1], > 10 µM.

As for `CCCNc1nc2cc(-c3nnn[nH]3)ccc2c2sccc12`, the inhibition at 0.5 µM on recombinant human PIM1 worked out at 59.1%; at recombinant human CK2, 31.1%. Moreover, the IC50 is > 1.1 µM at recombinant human PIM1, > 10 µM with K-562, > 10 µM with MV-4-11 and > 10 µM in test [1].

For `CC(C)(C)OC(=O)N1CCCC1CNc1nc2cc(-c3nnn[nH]3)ccc2c2sccc12` (stereo not shown), the inhibition at 0.5 µM on recombinant human PIM1 was determined as 35%; at recombinant human CK2, 27%. The IC50 (with K-562; in the test on MV-4-11; in test [1]) was > 10 µM each time.

Consider `c1cc2c(NCCN3CCCCC3)nc3cc(-c4nnn[nH]4)ccc3c2s1`, for which the inhibition at 0.5 µM on recombinant human PIM1 amounted to 81.1%; at recombinant human CK2, 37.1%. The IC50 is 0.313 µM on recombinant human PIM1, > 10 µM in the test on K-562, > 10 µM in the test with MV-4-11 and > 10 µM in test [1].

In the case of `c1cc2c(NCC3CCCN3)nc3cc(-c4nnn[nH]4)ccc3c2s1` (stereo not shown), the inhibition at 0.5 µM is 93.4% on recombinant human PIM1 and 86.1% on recombinant human CK2. In addition, the IC50 at recombinant human PIM1 is 0.046 µM; in the test on K-562 it was > 10 µM; in the test with MV-4-11, > 10 µM; in test [1], > 10 µM.

`CCN(CC)CCNc1nc2cc(-c3nnn[nH]3)ccc2c2sccc12`: the values for the inhibition at 0.5 µM at recombinant human PIM1 and on recombinant human CK2 were 87.3% and 52.6%, respectively. Also, the IC50 was 0.127 µM at recombinant human PIM1, > 10 µM in the test on K-562, > 10 µM with MV-4-11 and > 10 µM in test [1].

In the case of `CN(C)CCNc1nc2cc(C(=O)NC3CCCCC3)ccc2c2sccc12`, the inhibition at 0.5 µM on recombinant human PIM1 was -3.1%; at recombinant human CK2 it was -10.6%. Besides, the IC50 (in the test on K-562; in the test with MV-4-11; in test [1]) was > 10 µM each time.

As for `COCCNC(=O)c1ccc2c(c1)nc(NCCN(C)C)c1ccsc12`, the inhibition at 0.5 µM at recombinant human PIM1 is -3.76%; on recombinant human CK2, -12.9%. Moreover, the IC50 (in the test with K-562; in the test with MV-4-11; in test [1]) was > 10 µM each time.

As for `CN1CCCCC1CNc1nc2cc(-c3nnn[nH]3)ccc2c2sccc12` (stereo not shown), the inhibition at 0.5 µM on recombinant human PIM1 stood at 90.9%; on recombinant human CK2, 32.8%. Moreover, the IC50 was 0.064 µM at recombinant human PIM1, > 10 µM with K-562, > 10 µM in the test on MV-4-11 and > 10 µM in test [1].

Regarding `N#Cc1ccc2c(c1)[nH]c(=O)c1cscc12`, the inhibition at 0.5 µM on recombinant human PIM1 is -26.7%; at recombinant human CK2, -0.336%. Further, the IC50 (in the test on K-562; in the test with MV-4-11; in test [1]) was > 10 µM each time.

On to `N#Cc1ccc2c(c1)nc(Cl)c1cscc12`, for which the inhibition at 0.5 µM is -20.3% on recombinant human PIM1 and -6.52% at recombinant human CK2. Moreover, the values for the IC50 (in the test on K-562; in the test on MV-4-11; in test [1]) were > 10 µM, 1.81 µM and > 10 µM, respectively.

For `N#Cc1ccc2c(c1)nc(Nc1cccc(Cl)c1)c1cscc12`, the inhibition at 0.5 µM at recombinant human PIM1 is -32.8%; at recombinant human CK2, -9.4%. The IC50 (in the test on K-562; with MV-4-11; in test [1]) was > 10 µM each time.

With `N#Cc1ccc2c(c1)nc(Nc1ccc(F)cc1)c1cscc12`, the inhibition at 0.5 µM on recombinant human PIM1 is -6.77%; at recombinant human CK2 it was 9.21%. In addition, the IC50 (with K-562; in the test with MV-4-11; in test [1]) was > 10 µM each time.

In the case of `N#Cc1ccc2c(c1)nc(Nc1cccc(F)c1)c1cscc12`, the inhibition at 0.5 µM on recombinant human PIM1 is -28.6%; on recombinant human CK2 it was -20.1%. Further, the IC50 is 8.04 µM in the test on K-562, > 10 µM in the test with MV-4-11 and > 10 µM in test [1].

Take `N#Cc1ccc2c(c1)nc(Nc1ccc(Cl)cc1)c1cscc12`: the inhibition at 0.5 µM at recombinant human PIM1 was -35.8%; on recombinant human CK2, -2.49%. For the same molecule, the IC50 (in the test on K-562; in the test on MV-4-11; in test [1]) was > 10 µM each time.

In the case of `N#Cc1ccc2c(c1)nc(Nc1ccc(F)c(Cl)c1)c1cscc12`, the values for the inhibition at 0.5 µM on recombinant human PIM1 and on recombinant human CK2 were -26.3% and -8.36%, respectively. For the same molecule, the IC50 (in the test with K-562; in the test on MV-4-11; in test [1]) was > 10 µM in each case.

In the case of `N#Cc1ccc2c(c1)nc(Nc1cccc(C(F)(F)F)c1)c1cscc12`, the figures for the inhibition at 0.5 µM on recombinant human PIM1 and at recombinant human CK2 were -33.2% and -2.65%, respectively. In addition, the IC50 (in the test on K-562; with MV-4-11; in test [1]) was > 10 µM throughout.

As to `Fc1ccc(Nc2nc3cc(-c4nnn[nH]4)ccc3c3cscc23)cc1Cl`, the inhibition at 0.5 µM on recombinant human PIM1 is 14.2%; on recombinant human CK2, 51.1%. Further, the IC50 is > 10 µM in the test on K-562, 5.71 µM in the test on MV-4-11 and > 10 µM in test [1].

Regarding `Fc1ccc(Nc2nc3cc(-c4nnn[nH]4)ccc3c3cscc23)cc1`, the inhibition at 0.5 µM was 30.6% on recombinant human PIM1 and 37.6% on recombinant human CK2. Further, the figures for the IC50 (in the test on K-562; in the test with MV-4-11; in test [1]) were > 10 µM, 5.47 µM and > 10 µM, respectively.

For the molecule `Clc1ccc(Nc2nc3cc(-c4nnn[nH]4)ccc3c3cscc23)cc1`, the inhibition at 0.5 µM on recombinant human PIM1 stood at 15.2%; on recombinant human CK2 it was 39.5%. Also, the figures for the IC50 (in the test with K-562; with MV-4-11; in test [1]) were > 10 µM, 6.44 µM and > 10 µM, respectively.

As to `Fc1cc(Cl)cc(Nc2nc3cc(-c4nnn[nH]4)ccc3c3cscc23)c1`, the inhibition at 0.5 µM at recombinant human PIM1 is 11.4%; on recombinant human CK2 it was 57.3%. Also, the IC50 (in the test on K-562; with MV-4-11; in test [1]) was > 10 µM throughout.

Consider `Clc1cccc(Nc2nc3cc(-c4nnn[nH]4)ccc3c3cscc23)c1`, for which the figures for the inhibition at 0.5 µM at recombinant human PIM1 and at recombinant human CK2 were 17.9% and 63.3%, respectively. For the same molecule, the IC50 (in the test with K-562; in the test with MV-4-11; in test [1]) was > 10 µM each time.

Regarding `Fc1cccc(Nc2nc3cc(-c4nnn[nH]4)ccc3c3cscc23)c1`, the inhibition at 0.5 µM on recombinant human PIM1 came out at 14%; on recombinant human CK2, 52.6%. Besides, the IC50 (with K-562; in the test on MV-4-11; in test [1]) was > 10 µM in each case.

On to `Fc1cc(F)cc(Nc2nc3cc(-c4nnn[nH]4)ccc3c3cscc23)c1`, for which the values for the inhibition at 0.5 µM at recombinant human PIM1 and at recombinant human CK2 were 11.1% and 52.6%, respectively. Moreover, the IC50 (with K-562; in the test with MV-4-11; in test [1]) was > 10 µM throughout.

`FC(F)(F)c1cccc(Nc2nc3cc(-c4nnn[nH]4)ccc3c3cscc23)c1`: the inhibition at 0.5 µM at recombinant human PIM1 was -6.51%; on recombinant human CK2, 23.1%. Moreover, the IC50 (in the test with K-562; in the test with MV-4-11; in test [1]) was > 10 µM throughout.
